Reference: ChEMBL document CHEMBL1129092, “Structure-activity relationship study on N-glycosyl moieties through model building of DNA and ellipticine N-glycoside complex” (1996)
Calls of active or inactive are those of the source. The calls are words filed in the database; no cut-off is given here.

What was measured:
L1210 = assay: Antitumor activity against L1210 in mice, after ip administration at 30 mg/kg for 5 consecutive days, expressed as average % of life time in 6 mice, treated mice/control; type: functional, Mus musculus; settings: route intraperitoneal
Mus musculus [1] = organism: Mus musculus; assay: Compound was tested for antitumor activity against L1210 in mice; Inactive; type: functional, organism-based
Mus musculus [2] = organism: Mus musculus; assay: Compound was tested for antitumor activity against L1210 in mice; Active; type: functional, organism-based

CO[C@@H]1[C@@H](O)[C@@H](O)CO[C@H]1[n+]1ccc2c(C)c3[nH]c4ccc(O)cc4c3c(C)c2c1.[Br-]
T/C (L1210): 123%
Activity Score (Mus musculus [1]): inactive

Cc1c2cc[n+]([C@@H]3OC[C@H](O)[C@H](O)[C@H]3O)cc2c(C)c2c1[nH]c1ccc(O)cc12.[Br-]
T/C (L1210): >960%
Activity Score (Mus musculus [2]): Active

CO[C@H]1CO[C@@H]([n+]2ccc3c(C)c4[nH]c5ccc(O)cc5c4c(C)c3c2)[C@H](O)[C@H]1O.[Br-]
T/C (L1210): 167%
Activity Score (Mus musculus [2]): Active

CO[C@@H]1[C@@H](O)[C@H]([n+]2ccc3c(C)c4[nH]c5ccc(O)cc5c4c(C)c3c2)OC[C@@H]1O.[Br-]
T/C (L1210): 169%
Activity Score (Mus musculus [2]): Active
